Measured values reported in patent US11884612B2, “Covalent peptide binders” (The Regents of the University of California, priority 2016, dated 2024).
“Also recorded” adds a separate entry of the source. Positions of bridges follow the written chain, without caps; N, C: chain ends. Non-standard residues stand in square brackets, D forms with d. Residues, ends and D or L forms follow the SMILES beside them. *: point of attachment. Benzoyl(3-SO2F) = O=C(c1cccc(S(=O)(=O)F)c1)*; R8 = C=CCCCCCC[C@@](C)(N)C(=O)O; S5 = C=CCCC[C@](C)(N)C(=O)O; Dap = NC[C@H](N)C(=O)O

Legend:
p53-Mdm4 interaction = target: T1, p53-Mdm4 interaction (Homo sapiens, UniProt O15151); test: ReBiL assay of peptide inhibition of p53-Mdm4 interaction in cell lysates; assay type: biochemical; conditions: Saos-2 cell lysates
T1 construct: expressed in transfected cells; host or cells: Saos-2 (p53-null) ReBiL reporter cells; lysate
T1 sequence (O15151 1-490): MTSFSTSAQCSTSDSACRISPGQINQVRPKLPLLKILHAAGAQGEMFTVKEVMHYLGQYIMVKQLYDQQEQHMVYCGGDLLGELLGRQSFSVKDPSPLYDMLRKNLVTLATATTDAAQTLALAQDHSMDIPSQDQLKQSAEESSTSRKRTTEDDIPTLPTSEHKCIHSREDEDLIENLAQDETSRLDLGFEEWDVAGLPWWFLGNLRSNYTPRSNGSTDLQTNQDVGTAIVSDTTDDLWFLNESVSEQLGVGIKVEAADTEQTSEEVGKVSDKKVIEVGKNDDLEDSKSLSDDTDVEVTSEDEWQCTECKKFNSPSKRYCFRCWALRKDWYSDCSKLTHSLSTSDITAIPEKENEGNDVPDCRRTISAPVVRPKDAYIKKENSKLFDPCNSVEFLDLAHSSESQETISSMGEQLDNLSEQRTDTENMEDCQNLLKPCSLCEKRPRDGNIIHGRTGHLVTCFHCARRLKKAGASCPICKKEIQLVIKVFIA
From the text: In ReBiL, luciferase is split and separately fused to Mdm2/Mdm4 and p53, and the expression cassette is integrated into a single chromosomal site in host cells (FIG. 3A). Inhibition of the interaction between p53 and Mdm2/Mdm4 results in a decrease in luciferase activity.

Brca1-Bard1 interaction = target: T2, Brca1-Bard1 interaction (Homo sapiens, UniProt P38398+Q99728); test: ReBiL assay of peptide inhibition of Brca1-Bard1 interaction in cell lysates (binding selectivity); assay type: biochemical; conditions: cell lysates of Saos-2 cells
T2 construct: expressed in transfected cells; host or cells: Saos-2 ReBiL reporter cells; lysate
T2 sequence (P38398 whole entry): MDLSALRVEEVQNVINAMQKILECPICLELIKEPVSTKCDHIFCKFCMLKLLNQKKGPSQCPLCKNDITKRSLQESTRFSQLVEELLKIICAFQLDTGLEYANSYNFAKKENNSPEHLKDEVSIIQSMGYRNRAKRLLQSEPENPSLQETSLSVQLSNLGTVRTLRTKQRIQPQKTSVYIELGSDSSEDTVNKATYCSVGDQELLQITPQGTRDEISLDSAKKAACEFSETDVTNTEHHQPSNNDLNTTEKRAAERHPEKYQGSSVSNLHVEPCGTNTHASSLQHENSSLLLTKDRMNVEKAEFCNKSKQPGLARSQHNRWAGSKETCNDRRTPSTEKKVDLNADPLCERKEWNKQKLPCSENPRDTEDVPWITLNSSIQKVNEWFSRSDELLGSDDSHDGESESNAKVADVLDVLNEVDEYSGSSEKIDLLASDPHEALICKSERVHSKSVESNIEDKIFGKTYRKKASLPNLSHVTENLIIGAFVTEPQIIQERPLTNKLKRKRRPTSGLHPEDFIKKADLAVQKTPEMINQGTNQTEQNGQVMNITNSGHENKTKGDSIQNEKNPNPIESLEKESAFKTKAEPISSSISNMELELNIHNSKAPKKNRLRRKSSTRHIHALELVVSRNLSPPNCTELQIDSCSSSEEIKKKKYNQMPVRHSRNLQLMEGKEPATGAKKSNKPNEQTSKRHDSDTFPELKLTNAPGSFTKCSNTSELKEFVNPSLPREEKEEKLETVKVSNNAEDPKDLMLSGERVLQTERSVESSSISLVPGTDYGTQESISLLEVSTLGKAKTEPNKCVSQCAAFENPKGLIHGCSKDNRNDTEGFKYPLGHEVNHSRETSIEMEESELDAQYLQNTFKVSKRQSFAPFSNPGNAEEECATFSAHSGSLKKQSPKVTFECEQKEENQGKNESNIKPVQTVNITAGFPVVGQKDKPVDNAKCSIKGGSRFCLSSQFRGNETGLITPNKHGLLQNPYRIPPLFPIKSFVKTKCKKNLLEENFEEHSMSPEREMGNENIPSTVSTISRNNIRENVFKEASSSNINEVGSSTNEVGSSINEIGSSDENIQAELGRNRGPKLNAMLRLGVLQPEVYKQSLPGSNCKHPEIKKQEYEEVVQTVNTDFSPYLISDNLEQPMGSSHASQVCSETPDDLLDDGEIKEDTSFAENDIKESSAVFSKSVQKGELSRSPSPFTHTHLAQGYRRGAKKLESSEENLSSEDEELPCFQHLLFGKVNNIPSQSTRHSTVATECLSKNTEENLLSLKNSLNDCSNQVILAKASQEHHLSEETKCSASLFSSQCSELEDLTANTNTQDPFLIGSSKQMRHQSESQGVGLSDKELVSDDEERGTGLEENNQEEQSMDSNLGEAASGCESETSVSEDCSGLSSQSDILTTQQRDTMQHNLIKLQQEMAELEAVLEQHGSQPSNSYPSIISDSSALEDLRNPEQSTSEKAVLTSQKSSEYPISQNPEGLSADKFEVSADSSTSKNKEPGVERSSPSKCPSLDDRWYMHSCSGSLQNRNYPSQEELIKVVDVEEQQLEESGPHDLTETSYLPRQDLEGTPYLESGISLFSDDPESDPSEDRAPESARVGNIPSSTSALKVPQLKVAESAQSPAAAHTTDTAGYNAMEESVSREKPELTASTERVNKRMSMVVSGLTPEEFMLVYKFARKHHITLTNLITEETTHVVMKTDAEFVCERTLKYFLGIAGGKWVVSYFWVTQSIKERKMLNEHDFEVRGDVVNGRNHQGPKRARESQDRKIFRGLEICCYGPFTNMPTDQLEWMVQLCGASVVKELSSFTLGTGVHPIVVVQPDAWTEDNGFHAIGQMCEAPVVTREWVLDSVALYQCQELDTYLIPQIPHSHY
T2 sequence (Q99728 whole entry): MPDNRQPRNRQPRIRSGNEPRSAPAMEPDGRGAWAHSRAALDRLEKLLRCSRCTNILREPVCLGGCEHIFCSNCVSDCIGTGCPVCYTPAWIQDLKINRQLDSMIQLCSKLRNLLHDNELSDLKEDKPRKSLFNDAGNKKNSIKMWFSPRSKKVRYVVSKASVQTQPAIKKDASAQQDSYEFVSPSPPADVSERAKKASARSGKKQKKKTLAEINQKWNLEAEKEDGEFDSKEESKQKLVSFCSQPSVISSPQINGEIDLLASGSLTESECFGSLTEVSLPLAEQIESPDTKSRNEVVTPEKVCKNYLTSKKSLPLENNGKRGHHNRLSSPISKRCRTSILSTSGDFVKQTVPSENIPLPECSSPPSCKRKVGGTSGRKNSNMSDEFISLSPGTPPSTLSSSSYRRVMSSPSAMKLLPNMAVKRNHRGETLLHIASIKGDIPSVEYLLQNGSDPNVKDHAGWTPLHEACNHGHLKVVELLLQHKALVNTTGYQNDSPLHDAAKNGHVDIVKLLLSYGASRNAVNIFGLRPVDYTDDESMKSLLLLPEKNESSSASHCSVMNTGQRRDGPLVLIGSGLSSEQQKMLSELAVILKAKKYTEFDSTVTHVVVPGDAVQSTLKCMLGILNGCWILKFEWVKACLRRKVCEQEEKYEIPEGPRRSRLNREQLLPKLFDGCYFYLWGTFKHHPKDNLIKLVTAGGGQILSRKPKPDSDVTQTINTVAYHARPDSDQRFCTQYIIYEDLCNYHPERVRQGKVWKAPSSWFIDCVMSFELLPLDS
Description: To test the binding selectivity of peptides 2, 4 and 5, we then incubated the peptides with cell lysates of Saos-2 cells harboring ReBiL system expressing Brca1-Bard1 instead of p53-Mdm2/Mdmx.

p53 null Saos-2 cells = test: Cell viability (p53-independent cytotoxicity), CELL TITER-GLO assay; conditions: 37° C., 8 h, 50, 25, 12.5 uM
Description: Error bars are s.e.m. (n=5) and normalized to the luminescence reading of DMSO treated cells.
Cell viability was measured on the p53-null Saos-2 cells by CELL TITER-GLO® assay per Promega's instructions. Peptides were incubated with the Saos-2 cells at 37° C. for 8 h.

His-tagged Mdm4 = test: Covalent binding to purified Mdm4 (anti-His immunoblot band shift, ESI-MS)
From the text: FIG. 4. […] After separation by SDS-PAGE, an anti-His antibody was used to detect Mdm4.

Structure (SMILES): CC(=O)N[C@@H](CCC(N)=O)C(=O)N[C@@H](CO)C(=O)N[C@@H](CCC(N)=O)C(=O)N[C@@H](CCC(N)=O)C(=O)N[C@H](C(=O)N[C@@H](Cc1ccccc1)C(=O)N[C@]1(C)CCCCCCC=CCCC[C@@](C)(C(=O)N[C@@H](CCC(N)=O)C(=O)N[C@@H](CC(N)=O)C(N)=O)NC(=O)[C@H](CC(C)C)NC(=O)[C@H](CC(C)C)NC(=O)[C@H](CCCNC(=N)N)NC(=O)[C@H](Cc2c[nH]c3ccccc23)NC(=O)[C@H](CNC(=O)c2cccc(S(=O)(=O)F)c2)NC(=O)[C@H](CC(N)=O)NC1=O)[C@@H](C)O [Peptide 4] (Ac-QSQQTF[R8]N[Dap](Benzoyl(3-SO2F))WRLL[S5]QN-NH2; staple 7-14 (inferred))
- activity to Mdm4 relative to Mdm2 (p53-Mdm4 interaction): ten-fold higher
- inhibition of Brca1-Bard1 interaction (Brca1-Bard1 interaction): did not inhibit
- cell viability / cytotoxicity (p53 null Saos-2 cells): no significant cytotoxicity; also recorded: nontoxic
- time until crosslinking ("sulfate click reaction") with Mdm4 was complete (His-tagged Mdm4; 37° C., PBS buffer pH 7.5): ≤ 10 min
- shift of Mdm4 band to higher molecular weight (covalent binding), immunoblot (His-tagged Mdm4; Mdm4 1.5 μM, peptide 3 μM, PBS buffer pH 7.5, 37° C., 10, 20 and 60 min): shifted the Mdm4 band to a higher molecular weight; also recorded: shift of the band to a higher molecular weight
- covalent complex formation with Mdm4 by ESI-MS (His-tagged Mdm4; incubated 60 min): confirmed the covalent complex formation
